Measurements published in patent US7384629B2, “Biological control of nematodes with Hirsutella minnesotensis” (Regents of the University of Minnesota, priority 2000, dated 2008).

Test system: Hirsutella rhossiliensis
Assay: Effect of carbon source on growth, sporulation and spore germination
Details: for Growth mm-in-diam, on agar: carbon source 4 g/liter carbon; for Growth mm-in-diam, on agar / Sporulation 10^3/cm^2, on agar / growth in liquid culture (visual rating): 5 weeks; for Sporulation 10^3/cm^2, on agar / Spore germination %, on agar / growth in liquid culture (visual rating): carbon source; for Spore germination %, on agar: after incubation for 24 hr

| Compound | Growth mm-in-diam, on agar (isolate ATCC46487) [mm-in-diam] | Growth mm-in-diam, on agar (isolate JA16-1) [mm-in-diam] | Growth mm-in-diam, on agar (isolate OWVT-1) [mm-in-diam] | Sporulation 10^3/cm^2, on agar (isolate ATCC46487) | Spore germination %, on agar (isolate ATCC46487) [%] | Sporulation 10^3/cm^2, on agar (isolate JA16-1) | Spore germination %, on agar (isolate JA16-1) [%] | Sporulation 10^3/cm^2, on agar (isolate OWVT-1) | Spore germination %, on agar (isolate OWVT-1) [%] | growth in liquid culture (visual rating) (isolate ATCC46487) | growth in liquid culture (visual rating) (isolate OWVT-1) | growth in liquid culture (visual rating) (isolate JA16-1) |
| --- | --- | --- | --- | --- | --- | --- | --- | --- | --- | --- | --- | --- |
| O=C(O)CC(O)(CC(=O)O)C(=O)O [Citric acid] | 11.3 | 0.0 | 9.0 | 39.5 10^3/cm^2 | 50.0 | 7.4 10^3/cm^2 | 38.9 | 87.5 10^3/cm^2 | 52.2 |  |  |  |
| OC[C@H]1O[C@H](O[C@H]2O[C@H](CO)[C@@H](O)[C@H](O)[C@H]2O)[C@H](O)[C@@H](O)[C@@H]1O [D(+) trehalose] | 36.5 | 18.3 | 30.2 | 172.6 10^3/cm^2 | 60.0 | 5.2 10^3/cm^2 | 68.9 | 49.2 10^3/cm^2 | 62.2 |  |  |  |
| O=C[C@H](O)[C@@H](O)[C@@H](O)[C@H](O)CO [D(+)galactose] | 25.0 | 0.0 | 7.0 | 2.8 10^3/cm^2 | 62.2 | 7.4 10^3/cm^2 | 43.3 | 7.7 10^3/cm^2 | 43.3 | I |  |  |
| O=C[C@H](O)[C@@H](O)[C@H](O)CO [D(+)xylose] | 0.0 | 0.0 | 0.0 | 0.0 10^3/cm^2 | 21.1 | 2.5 10^3/cm^2 | 24.4 | 0.0 10^3/cm^2 | 26.7 |  |  |  |
| O=C[C@H](O)[C@H](O)[C@H](O)CO [D(−) ribose] | 15.5 | 0.0 | 8.0 | 61.3 10^3/cm^2 | 48.9 | 0.0 10^3/cm^2 | 15.5 | 1.4 10^3/cm^2 | 45.6 |  |  |  |
| O=C(CO)[C@@H](O)[C@H](O)[C@H](O)CO [D(−)fructose] | 16.2 | 0.0 | 8.5 | 50.2 10^3/cm^2 | 45.6 | 0.0 10^3/cm^2 | 34.4 | 36.8 10^3/cm^2 | 50.0 | I | I |  |
| OC[C@H]1O[C@@H](O[C@H]2[C@H](O)[C@@H](O)[C@H](O)O[C@@H]2CO)[C@H](O)[C@@H](O)[C@@H]1O [D-(+)-cellubiose] | 33.0 | 10.0 |  | 13.8 10^3/cm^2 | 58.9 | 88.8 10^3/cm^2 | 52.2 | 23.9 10^3/cm^2 | 52.2 | I | I | I |
| O=C[C@H](O)[C@@H](O)[C@H](O)[C@H](O)CO [D-(+)-glucose] | 28.3 | 6.5 | 8.0 | 7.7 10^3/cm^2 | 61.1 | 28.1 10^3/cm^2 | 65.5 | 30.7 10^3/cm^2 | 56.7 | I | I |  |
| O=C[C@@H](O)[C@H](O)[C@H](O)CO [D-(−)-arabinose] | 18.0 | 0.0 | 9.7 | 22.3 10^3/cm^2 | 48.9 | 27.0 10^3/cm^2 | 32.2 | 35.2 10^3/cm^2 | 40.0 |  |  |  |
| OC[C@@H](O)[C@@H](O)[C@H](O)[C@H](O)CO [D-mannitol] | 29.5 | 18.0 | 23.2 | 15.9 10^3/cm^2 | 58.9 | 17.3 10^3/cm^2 | 61.1 | 40.6 10^3/cm^2 | 60.0 | III (III = hyphae growth or colonies form a pellet, less than 2.5 ml) |  | I |
| OC[C@@H](O)[C@@H](O)[C@H](O)[C@@H](O)CO [D-sorbitol] | 30.3 | 18.3 | 11.7 | 64.7 10^3/cm^2 | 57.8 | 4.2 10^3/cm^2 | 67.8 | 126.0 10^3/cm^2 | 56.7 | III (III = hyphae growth or colonies form a pellet, less than 2.5 ml) |  | I |
| O=C(CO)[C@@H](O)[C@H](O)[C@@H](O)CO [L-(−)-sorbose] | 7.8 | 0.0 | 6.7 | 62.5 10^3/cm^2 | 35.6 | 0.0 10^3/cm^2 | 13.3 | 7.4 10^3/cm^2 | 26.7 | I | I |  |
| OC[C@H]1O[C@H](O[C@H]2[C@H](O)[C@@H](O)[C@H](O)O[C@@H]2CO)[C@H](O)[C@@H](O)[C@@H]1O [Maltose monohydrate] | 34.3 | 11.0 | 13.7 | 21.9 10^3/cm^2 | 36.7 | 26.6 10^3/cm^2 | 64.5 | 34.2 10^3/cm^2 | 46.7 | I | I | I |
| OC[C@H]1O[C@H](OCC2O[C@@H](O)[C@H](O)[C@@H](O)[C@@H]2O)[C@H](O)[C@@H](O)[C@H]1O (stereo partly shown) [Melibiose] | 35.0 | 11.8 | 18.2 | 41.9 10^3/cm^2 | 40.0 | 13.1 10^3/cm^2 | 61.7 | 33.7 10^3/cm^2 | 48.9 | III (III = hyphae growth or colonies form a pellet, less than 2.5 ml) |  | I |
| OC[C@H]1O[C@@](CO)(O[C@H]2O[C@H](CO)[C@@H](O)[C@H](O)[C@H]2O)[C@@H](O)[C@@H]1O [Sucrose] | 39.5 | 15.0 | 21.8 | 38.9 10^3/cm^2 | 55.6 | 6.9 10^3/cm^2 | 73.4 | 47.7 10^3/cm^2 | 52.2 | III (III = hyphae growth or colonies form a pellet, less than 2.5 ml) |  | I |
| O.OC[C@H]1O[C@@H](O[C@H]2[C@H](O)[C@@H](O)[C@@H](O)O[C@@H]2CO)[C@H](O)[C@@H](O)[C@H]1O [a-lactose monohydrate] | 35.8 | 15.8 | 9.8 | 2.4 10^3/cm^2 | 56.7 | 37.3 10^3/cm^2 | 68.9 | 17.4 10^3/cm^2 | 42.2 | I | I | I |
| Glycogen | 46.8 | 20.5 | 34.8 | 77.5 10^3/cm^2 | 72.2 | 12.4 10^3/cm^2 | 77.8 | 7.9 10^3/cm^2 | 72.2 |  | IV (IV = the pellet diameter larger than 1 cm, but the total volume distribution less than 5 ml) | IV (IV = the pellet diameter larger than 1 cm, but the total volume distribution less than 5 ml) |
